Read-outs that look alike come from different tables or passages of the source.
Legend:
[1] = tested on: E. coli GW2100/pTJgfp (umuC'::gfp); details: nutrient broth, FIG. 3
[2] = tested on: E. coli GW2100/pTJgfp (umuC'-gfp fusion); details: for Mean fluorescence emission: 24 hours incubation
[3] = tested on: arg-3 marker in E. coli strain GW2100/pTJgfp; details: for Mean revertant colony numbers: 37 parallel cultures, 4 day plate incubation

COS(C)(=O)=O [MMS, methylmethane sulphonate]
fluorescence level compared with the 0 dose control ([1]; MMS 13 μg/ml): no significant difference | fluorescence level (cellular toxicity) ([1]; MMS 1300 μg/ml): lower level of fluorescence | fluorescence level compared with the 0 dose control ([1]; MMS 325 and 650 μg/ml): dose-dependent manner | K.S statistic, fluorescence emission, mutagen versus the control ([2]; MMS 13 μg/ml): 3.09 | Mean fluorescence emission ([2]; MMS 13 μg/ml, 84 parallel cultures): 13.22 | K.S statistic, fluorescence emission, mutagen versus the control ([2]; MMS 325 μg/ml): 6.48 | Mean fluorescence emission ([2]; MMS 325 μg/ml, 84 parallel cultures): 36.5 | mutagenic activity by shift in mean fluorescent output per culture ([2]; MMS 325 μg/ml, 84 parallel cultures, FIG. 10): pronounced | K.S statistic, revertant colony numbers, mutagen versus the control ([3]; MMS 13 μg/ml): 2.711 | Mean revertant colony numbers ([3]; MMS 13 μg/ml): 8.84 | mutagenicity through change in culture to culture variation in mutant numbers (mean unchanged) ([3]; MMS 13 μg/ml, FIG. 8): mutagenicity is still detectable | K.S statistic, revertant colony numbers, mutagen versus the control ([3]; MMS 325 μg/ml): 3.889 | Mean revertant colony numbers ([3]; MMS 325 μg/ml): 17.95 | response in mean number of revertant colonies per culture sample ([3]; MMS 325 μg/ml, FIG. 8): clearly positive result

Source: patent US6667153B1 (priority 2000, dated 2003)
